In patent US7771652B2, “Combined use of an alkaline earth metal compound and a sterilizing agent to maintain osteoinduction properties of a demineralized bone matrix” (Novasterilis, Inc., priority 2008, dated 2010):

Tested on: CFUs
Assay: Reduction in CFUs with additive-containing supercritical carbon dioxide sterilant fluid
Assay type: cell-based
Conditions: additive in supercritical carbon dioxide under sterilization temperature and pressure conditions
From the text: It has been observed that 6-log reductions in CFUs may be achieved in accordance with the present invention by subjecting materials to be sterilized under sterilization temperature and pressure conditions using an additive-containing supercritical carbon dioxide as a sterilant fluid, wherein the additive is carbonic anhydrase. Further, this process is enhanced where the sterilant fluid is agitated during the sterilization process.

Question: For carbonic anhydrase, which “reductions in CFUs” value is on record?
Answer: 6 log
